# pEC50: −log10 of the molar value. Where a name gives a salt, the structure may show the parent alone. Read-outs that look alike come from different tables or passages of the source.
# Legend:
# Type in all cases: cell-based
# MC4R = biological target: T1, MC4R (Homo sapiens, UniProt P32245); experiment: In vitro activity of MCR receptors, intracellular cAMP signal (HEK293T/MCR cell line), MC4R
# T1 construct: expressed in transfected cells
# Method: (§1) Test purpose: to evaluate the agonistic effect of the compound on MCRs by detecting intracellular cAMP signal changes.
# (§2) Cells were resuspended with 1×PBS+500 μM IBMX. 10 μL of the cell suspension was added into a 384-well plate to be tested, and the cell concentration was adjusted to 1×10^4 cells per well for later use. A pre-prepared solution of the compound to be tested was added, and dimethyl sulfoxide of the same volume was added to blank control wells. The test plate was centrifuged at 300 rpm for 1 minute, incubated at 37° C. for 30 minutes, and added with 5 μL of cAMP-d2 and 5 μL of a CAMP-cry antibody detection reagent. The test plate was centrifuged at 300 rpm for 1 minute, and incubated at room temperature for 60 minutes. The test plate was placed in the Envision multifunctional microplate reader for reading, with a detection wavelength of 665/615 nm.
# MC1R = biological target: T2, MC1R (Homo sapiens, UniProt Q01726); experiment: In vitro activity of MCR receptors, intracellular cAMP signal (HEK293T/MCR cell line), MC1R
# T2 construct: expressed in transfected cells
# Method: as §1
# as §2, with “minutes.” for “minutes. The test plate was placed in the Envision multifunctional microplate reader for reading, with a detection wavelength of 665/615 nm.”
# MC3R = biological target: T3, MC3R (Homo sapiens, UniProt P41968); experiment: In vitro activity of MCR receptors, intracellular cAMP signal (HEK293T/MCR cell line), MC3R
# T3 construct: expressed in transfected cells
# Method: as §1
# as §2, with “minutes.” for “minutes. The test plate was placed in the Envision multifunctional microplate reader for reading, with a detection wavelength of 665/615 nm.”
# MC5R = biological target: T4, MC5R (Homo sapiens, UniProt P33032); experiment: In vitro activity of MCR receptors, intracellular cAMP signal (HEK293T/MCR cell line), MC5R
# T4 construct: expressed in transfected cells
# Method: as §1, §2
# [1] = cAMP, HEK293T/MCR cell line, read-out: MC4R EC50
# [2] = cAMP, HEK293T/MCR cell line, read-out: MC1R EC50
# [3] = cAMP, HEK293T/MCR cell line, read-out: MC5R EC50
# [4] = cAMP, HEK293T/MCR cell line, read-out: MC3R EC50
# T1 sequence (P32245 whole entry): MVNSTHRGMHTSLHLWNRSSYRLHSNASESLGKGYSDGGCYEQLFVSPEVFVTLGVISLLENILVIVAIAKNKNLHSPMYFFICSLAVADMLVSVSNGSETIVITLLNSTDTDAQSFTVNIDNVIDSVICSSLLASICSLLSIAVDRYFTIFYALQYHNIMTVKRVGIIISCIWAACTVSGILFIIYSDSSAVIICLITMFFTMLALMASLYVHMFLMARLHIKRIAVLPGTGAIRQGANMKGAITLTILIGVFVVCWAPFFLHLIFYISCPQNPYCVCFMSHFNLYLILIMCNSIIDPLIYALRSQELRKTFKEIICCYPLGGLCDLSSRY
# T2 sequence (Q01726 whole entry): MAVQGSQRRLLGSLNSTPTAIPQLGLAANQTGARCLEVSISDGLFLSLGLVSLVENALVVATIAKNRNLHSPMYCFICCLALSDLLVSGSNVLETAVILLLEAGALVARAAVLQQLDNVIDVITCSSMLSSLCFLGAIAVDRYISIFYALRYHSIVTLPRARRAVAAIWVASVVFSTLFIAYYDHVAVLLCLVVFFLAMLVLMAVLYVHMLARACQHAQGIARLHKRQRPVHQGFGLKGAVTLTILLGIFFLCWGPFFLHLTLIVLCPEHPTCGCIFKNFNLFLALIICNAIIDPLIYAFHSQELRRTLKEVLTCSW
# T4 sequence (P33032 whole entry): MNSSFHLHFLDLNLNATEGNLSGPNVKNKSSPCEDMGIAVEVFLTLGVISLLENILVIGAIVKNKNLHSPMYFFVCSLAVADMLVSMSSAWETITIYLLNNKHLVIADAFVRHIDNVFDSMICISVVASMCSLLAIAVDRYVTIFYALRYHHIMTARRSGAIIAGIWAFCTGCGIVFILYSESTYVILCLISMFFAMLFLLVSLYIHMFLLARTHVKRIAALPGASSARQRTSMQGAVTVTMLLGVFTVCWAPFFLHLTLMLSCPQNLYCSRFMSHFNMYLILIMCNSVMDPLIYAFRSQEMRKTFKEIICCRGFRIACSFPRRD
# T3 sequence (P41968 whole entry): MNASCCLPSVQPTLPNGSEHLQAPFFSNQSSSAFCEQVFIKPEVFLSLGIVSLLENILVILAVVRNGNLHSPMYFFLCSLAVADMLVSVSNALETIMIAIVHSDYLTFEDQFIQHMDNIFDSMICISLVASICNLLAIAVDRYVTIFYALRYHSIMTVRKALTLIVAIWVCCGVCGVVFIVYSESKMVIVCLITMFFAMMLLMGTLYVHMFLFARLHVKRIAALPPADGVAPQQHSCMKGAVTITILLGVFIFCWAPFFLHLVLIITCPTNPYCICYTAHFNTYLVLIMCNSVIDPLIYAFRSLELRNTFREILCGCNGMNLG
SMILES,pEC50 (MC4R; [1]),pEC50 (MC1R; [2]),pEC50 (MC3R),pEC50 (MC5R; [3]),pEC50 (MC4R),pEC50 (MC1R),pEC50 (MC3R; [4]),pEC50 (MC5R)
C[C@@H]1CN(C(=O)[C@@H]2CN(C3CCCCC3)C[C@H]2c2ccc(F)cc2F)C[C@H](C)N1c1ccc(F)cc1 [Compound 18],8.40,7.54,6.70,5.86,,,,
C[C@@H]1CN(C(=O)[C@@H]2CN(C3CCOCC3)C[C@H]2c2ccc(F)cc2F)C[C@H](C)N1c1ccc(F)c(F)c1 [Compound 14],8.00,6.24,6.17,6.04,,,,
C[C@@H]1CN(C(=O)[C@@H]2CN(C(C)(C)C)C[C@H]2c2ccc(F)cc2F)C[C@H](C)N1c1ccccn1 [Compound 1],,,,,6.83,5.63,< 5.00,< 5.00
"C[C@@H]1CN(C(=O)C2CN(C(C)(C)C)CC2c2ccc(Cl)cc2)C[C@H](C)N1c1ccc(F)cc1 (single isomer, unassigned) [Compound 9]",,,,,7.80,7.35,5.75,6.40
"C[C@@H]1CN(C(=O)C2CN(C(C)(C)C)CC2c2ccc(F)cc2F)C[C@H](C)N1c1ccc(F)cc1 (single isomer, unassigned) [Compound 3]",,,5.62,,7.52,6.52,,< 5.00
"C[C@@H]1CN(C(=O)C2CN(c3ccccc3)CC2c2ccc(F)cc2F)C[C@H](C)N1c1ccc(F)cc1 (single isomer, unassigned) [Compound 13]",,,,,7.30,< 5.00,5.48,< 5.00
"C[C@@H]1CN(C(=O)C2CN(C3CCOCC3)CC2c2ccc(Cl)cc2)C[C@H](C)N1c1ccc(F)cc1 (single isomer, unassigned) [Compound 16]",,,,,8.22,6.78,6.60,5.93
"C[C@@H]1CN(C(=O)C2CN(c3cccnn3)CC2c2ccc(F)cc2F)C[C@H](C)N1c1ccc(F)cc1 (single isomer, unassigned) [Compound 11]",,,,,9.40,7.09,7.59,5.67
C[C@@H]1CN(C(=O)[C@@H]2CN(C3CCOCC3)C[C@H]2c2ccc(F)cc2F)C[C@H](C)N1c1ccc(Cl)cc1 [Compound 15],8.52,,6.24,< 5.00,,6.24,,
"C[C@@H]1CN(C(=O)C2CN(c3ccc(C#N)cn3)CC2c2ccc(F)cc2F)C[C@H](C)N1c1ccc(F)cc1 (single isomer, unassigned) [Compound 12]",,,,,9.70,6.63,8.30,6.13
"C[C@@H]1CN(C(=O)C2CN(C(C)(C)C)CC2c2ccc(F)cc2F)C[C@H](C)N1c1ccc(C(F)(F)F)cc1 (single isomer, unassigned) [Compound 5]",,,,,7.46,6.05,5.46,< 5.00
C[C@@H]1CN(C(=O)[C@@H]2CN(C3CCC3)C[C@H]2c2ccc(F)cc2F)C[C@H](C)N1c1ccc(F)cc1 [Compound 17],8.17,7.26,5.96,5.09,,,,

# Continued, in another order:
pEC50 (MC4R; [1]),pEC50 (MC1R; [2]),pEC50 (MC3R),pEC50 (MC5R; [3]),SMILES,pEC50 (MC4R),pEC50 (MC1R),pEC50 (MC3R; [4]),pEC50 (MC5R)
8.28,6.31,6.57,< 5.00,"C[C@@H]1CN(C(=O)C2CN(C3CCOC(C)(C)C3)CC2c2ccc(F)cc2F)C[C@H](C)N1c1ccc(F)cc1 (single isomer, unassigned) [Compound 21b]",,,,
10.52,6.10,6.58,< 5.00,"CC1CC(N2CC(C(=O)N3C[C@@H](C)N(c4ccc(F)cc4)[C@@H](C)C3)C(c3ccc(F)cc3F)C2)CCO1 (single isomer, unassigned) [Compound 22a]",,,,
7.59,5.70,5.51,< 5.00,"C[C@@H]1CN(C(=O)C2CN(C3CCOC3)CC2c2ccc(F)cc2F)C[C@H](C)N1c1ccc(F)cc1 (single isomer, unassigned) [Compound 20a]",,,,
7.62,7.10,5.69,5.94,C[C@@H]1CN(C(=O)[C@@H]2CN(C(C)(C)C)C[C@H]2c2ccc(F)cc2F)C[C@H](C)N1c1ccccc1 [Hydrochloride salt of compound 6],,,,
8.40,7.24,6.50,5.71,CCC(C)(C)N1CC(C(=O)N2C[C@@H](C)N(c3ccc(F)cc3)[C@@H](C)C2)[C@H](c2ccc(F)cc2F)C1 (stereo partly drawn) [Compound 23],,,,
8.72,6.97,6.16,< 5.00,C[C@@H]1CN(C(=O)C2CN([C@H]3CCO[C@@H](C)C3)C[C@H]2c2ccc(F)cc2F)C[C@H](C)N1c1ccc(F)cc1 (stereo partly drawn) [Compound 22d],,,,
